Test results reported in PubChem BioAssay (NCI).
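Dose response: 5 concentrations. Exposure: 48 h. Format: 96-well plates. Endpoint: linear interpolation; highest concentration if not reached. GI50 = concentration required for 50% inhibition of growth. TGI: concentration producing complete growth inhibition.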

Assays:
Assay in all cases: inhibition of tumour cell growth, NCI panel, 48 h
[1] = test system: HOP-62 NSCLC
[2] = test system: KM12 colon
[3] = test system: MALME-3M melanoma
[4] = test system: SK-MEL-28 melanoma
[5] = test system: SK-MEL-5 melanoma
[6] = test system: SNB-19 CNS
[7] = test system: TK-10 renal
[8] = test system: U251 CNS
[9] = test system: UACC-257 melanoma
[10] = test system: HCT-15 colon

SMILES: O=[N+]([O-])c1cccc(C2SCc3nc4ccccc4n32)c1 (stereo unspecified)
- TGI [1]: > 100 µM
- TGI [2]: > 100 µM
- TGI [3]: > 100 µM
- TGI [4]: > 100 µM
- TGI [5]: 52.8 µM
- TGI [6]: > 100 µM
- TGI [7]: > 100 µM
- TGI [8]: > 100 µM
- TGI [9]: > 100 µM

SMILES: CC(C)c1cc(C(C)C)c(S(=O)(=O)NN)c(C(C)C)c1
- TGI [10]: > 100 µM
- TGI [1]: > 100 µM
- TGI [2]: > 100 µM
- TGI [3]: > 100 µM
- TGI [4]: > 100 µM
- TGI [5]: > 100 µM
- TGI [6]: > 100 µM
- TGI [7]: > 100 µM
- TGI [8]: > 100 µM
- TGI [9]: > 100 µM

SMILES: CCOP(=O)(CCP(=O)(OCC)OCC)OCC.C[CH2][Sn]([Cl])([Cl])[CH2]C
- GI50 [10]: 51.2 µM
- TGI [10]: > 78.7 µM
- GI50 [1]: > 91.3 µM
- TGI [1]: > 100 µM
- GI50 [2]: > 100 µM
- TGI [2]: > 100 µM
- GI50 [3]: 15.3 µM
- TGI [3]: 30.6 µM
- GI50 [4]: 35600 nM
- TGI [4]: > 61.9 µM
- GI50 [5]: 36400 nM
- TGI [5]: > 86.7 µM
- GI50 [6]: 31.2 µM
- TGI [6]: 49.9 µM
- GI50 [7]: 30.6 µM
- TGI [7]: 52 µM
- GI50 [8]: 37.9 µM
- TGI [8]: > 69.3 µM
- GI50 [9]: 28500 nM
- TGI [9]: 59.3 µM

SMILES: Nc1ccc2c(c1)C(=O)c1ccc(F)cc1-2
- TGI [10]: > 100 µM
- TGI [1]: > 100 µM
- TGI [2]: > 100 µM
- TGI [4]: > 100 µM
- TGI [5]: > 100 µM
- TGI [6]: > 100 µM
- TGI [7]: > 100 µM
- TGI [8]: > 100 µM
- TGI [9]: > 100 µM

SMILES: C/C=C/C=N/N(c1nnc(-c2ccccc2)c(-c2ccccc2)n1)S(=O)(=O)c1ccc(C)cc1
- TGI [10]: 18.6 µM
- TGI [2]: 22.9 µM
- TGI [3]: 22.8 µM
- TGI [4]: 28.7 µM
- TGI [5]: 23.1 µM
- TGI [7]: 28.2 µM
- TGI [8]: 12.7 µM
- TGI [9]: 20.9 µM

SMILES: CC(=O)OC1(C#N)CC2OC1C1C2N1C(=O)c1ccccc1 (stereo unspecified)
- TGI [10]: > 100 µM
- TGI [1]: > 100 µM
- TGI [3]: > 100 µM
- TGI [4]: > 100 µM
- TGI [5]: > 100 µM
- TGI [6]: > 100 µM
- TGI [7]: > 100 µM
- TGI [8]: > 100 µM

SMILES: CCOC(=O)C1=C(Nc2ccccc2)OC/C1=N\NC(=O)Cc1ccccc1
- TGI [1]: > 50 µM
- TGI [2]: > 50 µM
- TGI [3]: > 50 µM
- TGI [4]: > 50 µM
- TGI [5]: > 50 µM
- TGI [6]: > 50 µM
- TGI [7]: > 50 µM
- TGI [8]: > 50 µM
- TGI [9]: > 50 µM

SMILES: Cc1ccc(/C=C(\C#N)n2nnc3cc(Cl)c(Cl)cc32)cc1
- GI50 [10]: 1.73 µM
- TGI [10]: 5.99 µM
- GI50 [1]: 2.6 µM
- TGI [1]: > 100 µM
- GI50 [2]: 3.03 µM
- TGI [2]: > 100 µM
- GI50 [3]: 2.18 µM
- TGI [3]: 6.21 µM
- GI50 [4]: 2050 nM
- TGI [4]: 4.77 µM
- GI50 [5]: 2440 nM
- TGI [5]: 6.55 µM
- GI50 [7]: 4.4 µM
- TGI [7]: 36.4 µM
- GI50 [9]: 2950 nM
- TGI [9]: > 100 µM

SMILES: NC(=S)N/N=C(/CC(=O)c1ccc([N+](=O)[O-])cc1)C(=O)Nc1ncc([N+](=O)[O-])s1
- TGI [1]: > 100 µM
- TGI [2]: > 100 µM
- TGI [3]: > 100 µM
- TGI [4]: > 100 µM
- TGI [5]: > 100 µM
- TGI [6]: > 100 µM
- TGI [7]: > 100 µM
- TGI [8]: > 100 µM
- TGI [9]: > 100 µM

SMILES: O=S(=O)(NCCNc1nccc(-c2c(-c3cccc(O)c3)nc3sccn23)n1)c1ccc(F)cc1
- GI50 [10]: 10.8 µM
- TGI [10]: 55.4 µM
- GI50 [1]: 13.8 µM
- TGI [1]: 56.5 µM
- GI50 [2]: 4.36 µM
- TGI [2]: 16.2 µM
- GI50 [4]: 660 nM
- TGI [4]: 24 µM
- GI50 [5]: 1610 nM
- TGI [5]: 3.98 µM
- GI50 [6]: 16.5 µM
- TGI [6]: 75.3 µM
- GI50 [7]: 11.9 µM
- TGI [7]: 42.1 µM
- GI50 [8]: 7.48 µM
- TGI [8]: 49.3 µM
- GI50 [9]: 568 nM
- TGI [9]: 16.5 µM
